In patent US9095600B2, “Prophylactic and/or therapeutic agent for cardiac infarction” (OSAKA UNIVERSITY, priority 2007, dated 2015):

Columns and labels:
[1] = Hemodynamic test (blood pressure and heart rate during intravenous injection); format: in vivo, Male SD rats; conditions: rat, i.v.
Experimental: Male SD rats (nine weeks old, body weight: 270 g to 320 g, supplied by Japan SLC, Inc.) were employed. Each of the rats was anesthetized with pentobarbital sodium (30 mg/kg, intraperitoneal injection) and then fixed in the dorsal position. A tube was orally inserted into the trachea, and artificial ventilation was carried out by means of a ventilator for small animals. A catheter (INTRAMEDIC Polyethylene Tubing PE50, CLAY ADAMS) was inserted into the femoral artery and the femoral vein, and systolic blood pressure, diastolic blood pressure, and mean blood pressure were measured in the femoral artery. Heart rate was measured by means of an electrocardiograph. A drug sample was injected through the catheter indwelled in the femoral vein by means of a syringe pump (Model PHD 4400, HARVARD). Specifically, after stabilization of hemodynamics, empty liposomes (n=8), adenosine only (n=8), and adenosine-retaining liposomes (n=8) were injected transvenously, respectively.
In an empty liposome group, injection was carried out at 0.05 mL/minute for 10 minutes (one minute, five minutes, and 10 minutes after initiation of injection, blood pressure and heart rate were evaluated), and, for five minutes after completion of injection, blood pressure and heart rate were evaluated. Thereafter, evaluation was carried out in a manner similar to that described above at an injection rate of 0.1 mL/minute, 0.2 mL/minute, or 0.4 mL/minute. In an adenosine-only group or an adenosine-retaining liposome group, injection was initiated at 0.05 mL/minute (225 μg/kg/minute as reduced to adenosine), and cumulative administration was carried out through the same protocol as in the case of the empty liposome group.

[2] = tested on: ischemia-reperfusion model rat; test: Ischemia-reperfusion test (rat), myocardial infarct size; format: in vivo, Male SD rats; conditions: 900 μg/kg/minute i.v. for 10 minutes, injection before ischemia, 72 hours after reperfusion
Experimental: Similar to the case of the hemodynamic test, male SD rats were employed. Each of the rats was anesthetized and artificially ventilated, and then thoracotomy was carried out at the thoracic sidewall. The left anterior descending coronary artery (LAD) was ligated by means of a suturing needle with suture for 30 minutes, and then blood flow was restored, to thereby prepare an ischemia-reperfusion model. A drug sample was injected through a catheter (INTRAMEDIC Polyethylene Tubing PE50, CLAY ADAMS) indwelled in the femoral vein.
In this test, an adenosine-retaining liposome group were divided into two groups: a group received adenosine-retaining liposomes before ischemia (injected for 10-minute before ischemia), and a group received adenosine-retaining liposomes before reperfusion (injected for 10-minute initiated 5 minutes before reperfusion). In the other groups, injection was carried out before ischemia (injected for 10-minute before ischemia). […]
Each of the rats was anesthetized 72 hours after reperfusion, and then thoracotomy was carried out again. […] After staining, the specimens were photographed, and an ischemic risk area (non-Evans blue-stained area) and an infarct area (non-TTC-stained area) were determined by means of Win ROOF Version 5.5 (product of Mitani Corporation). Infarct size was calculated by dividing the infarct area by the ischemic risk area.

[3] = cited from earlier work
[4] = ten minutes after initiation of adenosine injection at 225 μg/kg/minute
[5] = ten minutes after initiation of adenosine injection at 450 μg/kg/minute
[6] = ten minutes after initiation of adenosine injection at 900 μg/kg/minute
[7] = ten minutes after initiation of adenosine injection at 1,800 μg/kg/minute

Compound: Nc1ncnc2c1ncn2[C@@H]1O[C@H](CO)[C@@H](O)[C@H]1O [adenosine, Adenosine]
- heart rate [1, 4]: 357±25 bpm
- mean blood pressure [1, 4]: 101±12 mmHg
- heart rate [1, 5]: 324±25 bpm
- mean blood pressure [1, 5]: 93±14 mmHg
- heart rate [1, 6]: 296±12 bpm
- mean blood pressure [1, 6]: 84±11 mmHg
- heart rate [1, 7]: 236±17 bpm
- mean blood pressure [1, 7]: 75±11 mmHg
- myocardial infarct size (infarct area / ischemic risk area) [2]: 25.2±1.9%
- half life in blood [3]: < 10 s
